We go through 33 compounds from patent US20140179681A1, “METHODS AND COMPOSITIONS OF TARGETED DRUG DEVELOPMENT” (priority 2010, published 2014).

The target in one assay is T1, EGFR (Homo sapiens, UniProt P00533).
T1 construct: host or cells: A431
As to the kind of experiment: EGFR in-cell Western (ICW) screening protocol (EGFR inhibition assay). It counts as cell-based. Particulars: Table 10; % Inhibition of EGF dependent EGFR phosphorylation in A431 cells; compound 125 μM in assay. An outline of the steps:
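In-cell Western read-out: fixed A431 cells were co-stained for total EGFR and phospho-EGFR (Tyr1173; some runs Tyr1045). Before fixation, cells were serum-starved for 2 h, exposed to compound for 4 h, then given EGF for 10 min, usually at 10 ng/ml final (6.6 or 12.5 ng/ml in some runs).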

Assay [1] has as its system epithelial carcinoma A431 cell line. The experiment in a line: MTT Cell Proliferation Assay, A431 cells. It is filed as cell-based. Particulars: Homo sapiens, A-431, 72 h, Table 10; first of x/y(ratio): A431; three day treatment; unit not printed (doses in μM); read-out: MTT assay (first value). The method in brief:
(§1)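 Each concentration ran in quadruplicate across duplicate plates, with compounds serially diluted in DMSO and delivered at 0.5% DMSO in 0.5% FBS medium for 3 days.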

A further assay concerns MDBK line. The experiment in a line: MTT Cell Proliferation Assay, MDBK cells. The following applies: Bos taurus, MDBK, 72 h, Table 10; second of x/y(ratio): MDBK; three day treatment; unit not printed (doses in μM); read-out: MTT assay (second value). It is filed as cell-based, bovine. The method in brief: as §1
A general note: Tetrazolium assays rely on reduction of a dye to a coloured formazan, in cell work by metabolically active cells.

T1 sequence (P00533 25-1210): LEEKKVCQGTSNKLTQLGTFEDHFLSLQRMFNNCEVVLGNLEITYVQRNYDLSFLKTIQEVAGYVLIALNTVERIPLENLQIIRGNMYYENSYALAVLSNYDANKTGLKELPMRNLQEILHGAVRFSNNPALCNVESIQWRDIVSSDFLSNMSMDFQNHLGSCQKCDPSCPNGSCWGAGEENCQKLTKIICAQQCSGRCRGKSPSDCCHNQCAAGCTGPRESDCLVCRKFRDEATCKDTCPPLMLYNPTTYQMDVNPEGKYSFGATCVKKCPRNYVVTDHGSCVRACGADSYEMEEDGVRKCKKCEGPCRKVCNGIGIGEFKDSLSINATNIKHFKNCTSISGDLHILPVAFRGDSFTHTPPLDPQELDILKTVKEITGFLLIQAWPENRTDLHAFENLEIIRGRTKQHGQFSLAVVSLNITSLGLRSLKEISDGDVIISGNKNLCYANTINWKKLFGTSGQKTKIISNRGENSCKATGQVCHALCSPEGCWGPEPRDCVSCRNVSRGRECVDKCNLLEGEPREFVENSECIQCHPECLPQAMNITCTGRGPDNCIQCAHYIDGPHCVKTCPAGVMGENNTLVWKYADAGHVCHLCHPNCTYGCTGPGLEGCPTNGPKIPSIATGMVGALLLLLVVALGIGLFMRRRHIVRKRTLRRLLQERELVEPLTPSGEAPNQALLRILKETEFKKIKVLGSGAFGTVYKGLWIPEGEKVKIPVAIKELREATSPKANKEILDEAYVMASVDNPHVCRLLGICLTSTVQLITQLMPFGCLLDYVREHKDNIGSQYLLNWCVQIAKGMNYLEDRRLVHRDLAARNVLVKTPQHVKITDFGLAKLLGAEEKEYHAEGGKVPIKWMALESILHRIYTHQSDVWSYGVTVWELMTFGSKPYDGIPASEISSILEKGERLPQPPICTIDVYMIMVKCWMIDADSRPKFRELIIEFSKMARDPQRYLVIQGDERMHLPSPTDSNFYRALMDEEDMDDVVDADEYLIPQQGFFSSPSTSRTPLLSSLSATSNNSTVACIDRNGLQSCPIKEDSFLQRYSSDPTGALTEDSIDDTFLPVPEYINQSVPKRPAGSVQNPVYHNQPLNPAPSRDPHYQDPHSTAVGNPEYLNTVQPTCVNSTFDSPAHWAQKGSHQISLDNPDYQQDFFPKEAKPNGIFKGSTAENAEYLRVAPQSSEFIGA

`COc1ccccc1NC(=S)Nc1ccc(S(=O)(=O)Nc2ccc(Cl)cc2)cc1` [AD4-12502]: the ICW assay on EGFR is recorded as 25.1182. Also, the IC50 amounted to 6.97 µM in assay [1] and 5.46 µM in the assay with MDBK line.
Regarding `CC(C)c1ccc(NC(=S)Nc2ccc(S(=O)(=O)Nc3ccc(Cl)cc3)cc2)cc1` [AD4-12503], at EGFR, the ICW assay came to 79.4624. Besides, the IC50 was found to be 4.05 µM in assay [1] and 5.43 µM in the assay with MDBK line.
Consider `O=S(=O)(Nc1ccc(Cl)cc1)c1ccc(NC(=S)Nc2ccc(Br)cc2)cc1` [AD4-12504], for which, at EGFR, the ICW assay is 118.46. The figures for the IC50 (in assay [1]; with MDBK line) were 11.1 µM and 15.6 µM, respectively.
Take `Cc1ccc(NC(=S)Nc2ccc(S(=O)(=O)Nc3ccc(Cl)cc3)cc2)cc1Cl` [AD4-12505]: the ICW assay against EGFR was 93.3284. The figures for the IC50 (in assay [1]; with MDBK line) were 5.69 µM and 6.02 µM, respectively.
`O=S(=O)(Nc1cc(Cl)cc(Cl)c1)c1ccc(NC(=S)Nc2cccc(C(F)(F)F)c2)cc1` [AD4-12509] registered an ICW assay at EGFR of 140.975. The IC50 in assay [1] is 5.49 µM; with MDBK line it was 5.24 µM.
Regarding `Cc1cc(C)cc(NC(=S)Nc2ccc(S(=O)(=O)Nc3ccc(Cl)cc3)cc2)c1` [AD4-12512], on EGFR, the ICW assay worked out at 28.9126. Also, the IC50 in assay [1] was determined as 6.4 µM; with MDBK line it was 5.83 µM.
On EGFR, `COc1ccc(NC(=S)Nc2ccc(S(=O)(=O)Nc3ccccc3C)cc2)c(OC)c1` [AD4-12517] returned an ICW assay of 31.5308. Also, the IC50 in assay [1] was determined as 30.4 µM; with MDBK line it was 20 µM.
For `CCOc1ccccc1NC(=S)Nc1ccc(S(=O)(=O)Nc2ccc(Cl)cc2)cc1` [AD4-12521], at EGFR, the ICW assay amounted to 45.7824. The IC50 in assay [1] was determined as 6.99 µM; in the assay with MDBK line, 6.54 µM.
`Cc1ccc(NC(=S)Nc2ccc(S(=O)(=O)Nc3cc(Cl)cc(Cl)c3)cc2)cc1Cl` [AD4-12522] yielded an ICW assay on EGFR of 123.893. In addition, the IC50 stood at 6.2 µM in assay [1] and 5.33 µM in the assay on MDBK line.
`COc1ccc(NC(=S)Nc2ccc(S(=O)(=O)Nc3ccc(Cl)cc3)cc2)cc1OC` [AD4-12525] gave an ICW assay against EGFR of 34.1311. The figures for the IC50 (in assay [1]; in the assay with MDBK line) were 14.8 µM and 12.2 µM, respectively.
The compound `COc1ccc(NC(=S)Nc2ccc(S(=O)(=O)Nc3ccccc3C)cc2)cc1OC` [AD4-12527] yielded an ICW assay against EGFR of 31.9587. For the same compound, the IC50 in assay [1] was 26.9 µM; with MDBK line, 20 µM.
For `O=S(=O)(Nc1cc(Cl)cc(Cl)c1)c1ccc(NC(=S)Nc2ccc(Cl)c(Cl)c2)cc1` [AD4-12528], in that order: 123.946, 5.43 µM and 5.3 µM.
In turn, `CCOc1ccc(NC(=S)Nc2ccc(S(=O)(=O)Nc3cc(Cl)cc(Cl)c3)cc2)cc1` [AD4-12529] showed an ICW assay against EGFR of 63.9249. The results for the IC50 (in assay [1]; in the assay on MDBK line) were 6.35 µM and 6.47 µM, respectively.
In turn, `COc1ccccc1NS(=O)(=O)c1ccc(NC(=S)Nc2ccc(OC)c(OC)c2)cc1` [AD4-12537] showed an ICW assay against EGFR of 30.7051. Besides, the IC50 in assay [1] turned out to be 35.4 µM; in the assay with MDBK line, 38.6 µM.
Take `COC(=O)c1sc2cc(NC(=S)Nc3ccc(S(=O)(=O)Nc4c(C)cc(C)cc4C)cc3)ccc2c1Cl` [AD4-12560]: the ICW assay at EGFR is 42.3275. Also, the IC50 in assay [1] was found to be 8.88 µM; in the assay with MDBK line, 5.23 µM.
The like results for `COc1ccc(NS(=O)(=O)c2ccc(NC(=S)Nc3ccccc3C(F)(F)F)cc2)cc1` [AD4-12577] were, in that order, 29.4151, 6.62 µM and 5.92 µM.
Regarding `O=S(=O)(Nc1ccccc1)c1ccc(NC(=S)Nc2ccc(Cl)cc2)cc1` [AD4-12783], the ICW assay against EGFR stood at 57.4272. The IC50 came to 7 µM in assay [1] and 7.62 µM in the assay with MDBK line.
`CCC(C)c1ccc(NC(=S)Nc2ccc(S(=O)(=O)Nc3ccccc3)cc2)cc1` (stereo not drawn) [AD4-12798] returned an ICW assay on EGFR of 49.531. For the same compound, the IC50 in assay [1] was 4.74 µM; with MDBK line it was 5.69 µM.
Turning to `CC1CCc2cc(F)ccc2N1S(=O)(=O)c1ccc(NC(=S)Nc2ccc(Br)cc2)cc1` (stereo not drawn) [AD4-12813], the ICW assay against EGFR is given as 26.1431. Besides, the IC50 in assay [1] amounted to 11.8 µM; in the assay with MDBK line it was 13.6 µM.
`CC(C)c1ccc(NC(=S)Nc2ccc(S(=O)(=O)Nc3ccccc3)cc2)cc1` [AD4-12820] yielded an ICW assay on EGFR of 47.471. Further, the IC50 in assay [1] was 5.98 µM; with MDBK line, 5.93 µM.
For `O=S(=O)(Nc1ccccc1)c1ccc(NC(=S)Nc2ccc(Cl)cc2Cl)cc1` [AD4-12822], in that order: 51.4082, 6.92 µM and 7.04 µM.
Turning to `CCCCc1ccc(NC(=S)Nc2ccc(S(=O)(=O)Nc3ccccc3)cc2)cc1` [AD4-12823], at EGFR, the ICW assay is recorded as 30.8167. For the same compound, the IC50 came out at 4.07 µM in assay [1] and 4.06 µM in the assay on MDBK line.
With `CC(=O)c1cccc(NC(=S)Nc2ccc(S(=O)(=O)N3c4ccc(F)cc4CCC3C)cc2)c1` (stereo not drawn) [AD4-12825], the ICW assay on EGFR was found to be 26.7866. Besides, the IC50 turned out to be 6.78 µM in assay [1] and 5.46 µM in the assay on MDBK line.
As for `CC1CCc2cc(F)ccc2N1S(=O)(=O)c1ccc(NC(=S)Nc2ccc(Cl)c(Cl)c2)cc1` (stereo not drawn) [AD4-12827], at EGFR, the ICW assay is 45.9206. In addition, the IC50 turned out to be 6.49 µM in assay [1] and 6.4 µM with MDBK line.
`CC1CCc2cc(F)ccc2N1S(=O)(=O)c1ccc(NC(=S)Nc2ccc3c(c2)OCO3)cc1` (stereo not drawn) [AD4-12828] displayed an ICW assay on EGFR of 32.6456. In addition, the IC50 was 26.6 µM in assay [1] and 63.4 µM in the assay on MDBK line.
On to `Cc1ccc(Cl)cc1NC(=S)Nc1ccc(S(=O)(=O)N2c3ccc(F)cc3CCC2C)cc1` (stereo not drawn) [AD4-12829], for which, on EGFR, the ICW assay stood at 46.4407. Besides, the IC50 in assay [1] came out at 37 µM; in the assay with MDBK line, 37.3 µM.
In the case of `CC1CCc2cc(F)ccc2N1S(=O)(=O)c1ccc(NC(=S)Nc2ccc(Br)cc2Cl)cc1` (stereo not drawn) [AD4-12832], the ICW assay against EGFR is given as 29.02. The IC50 in assay [1] amounted to 7.71 µM; in the assay on MDBK line, 16.3 µM.
For `O=S(=O)(Nc1ccccc1)c1ccc(NC(=S)Nc2ccc(Cl)c(Cl)c2)cc1` [AD4-12833], in that order: 115.634, 5.94 µM and 5.96 µM.
`O=S(=O)(Nc1ccccc1)c1ccc(NC(=S)Nc2cccc(C(F)(F)F)c2)cc1` [AD4-12835] came in with an ICW assay against EGFR of 116.579. Besides, the IC50 in assay [1] amounted to 6.15 µM; in the assay with MDBK line, 5.89 µM.
`CC1CCc2cc(F)ccc2N1S(=O)(=O)c1ccc(NC(=S)Nc2ccc(F)c(Cl)c2)cc1` (stereo not drawn) [AD4-12836] came in with an ICW assay against EGFR of 46.1658. In addition, the IC50 in assay [1] came to 9.32 µM; with MDBK line, 8.43 µM.
`CC1CCc2cc(F)ccc2N1S(=O)(=O)c1ccc(NC(=S)Nc2cccc(F)c2)cc1` (stereo not drawn) [AD4-12837]: at EGFR, the ICW assay came to 35.1542. Besides, the IC50 in assay [1] was 6.28 µM; with MDBK line it was 5.68 µM.
In the case of `O=S(=O)(Nc1ccccc1)c1ccc(NC(=S)Nc2cccc(Cl)c2)cc1` [AD4-12842], on EGFR, the ICW assay was determined as 80.8965. The IC50 in assay [1] stood at 6.72 µM; in the assay with MDBK line, 5.55 µM.
In the case of `Cc1ccc(NC(=S)Nc2ccc(S(=O)(=O)Nc3ccccc3)cc2)cc1Cl` [AD4-12844], the ICW assay at EGFR was determined as 112.768. The IC50 in assay [1] stood at 6.8 µM; in the assay with MDBK line it was 6.13 µM.
